Experimental data as given in patent US11390631B1, “Benzodiazepine derivatives as RSV inhibitors” (priority 2015, dated 2022).

Assays:
[1] = tested on: RSV-B, genotype B, strain 9320; assay: RSV-B assay: A549 cells infected with RSV-B, qPCR or ATPlite readout; assay type: cell-based, Human respiratory syncytial virus (HRSV); conditions: human respiratory syncytial virus, A549, read-out: Human RSV-B EC50
Text: Hep-2 cells, (originally derived from tumors grown in irradiated-cortisonised weanling rats that had been injected with epidermoid carcinoma tissue from a person's larynx, but later found to be indistinguishable from HeLa cells by PCR DNA analysis), were used for the culturing of genotype B, strain 9320. Flasks were inoculated with RSV-B and viral stocks were collected once cytopathic effect (CPE) was greater than […]. Viral stocks in 25% o sucrose media were snap frozen using liquid nitrogen to increase viral stability. Viral stock titers were quantified by tissue culture infectious dose 50% o (TCID50) using 8,000 cells per well and 5-fold viral dilutions across a 96-well plate, cultured for 4 days. Viral stock titers were also quantified by a plaque forming unit assay, as described elsewhere.
The assay is run as follows: A549 cells (originally derived through explant culture from a person's carcinomatous lung tissue) are seeded into the inner 60 wells of a 96-well plate at 3,000 cells per well in a volume of 50 μL using A549 growth media (F-12K Media, 1% Penn/Strep, 1% nonessential amino acids, 10% heat-inactivated FBS). 2-fold serial dilutions of control and test compounds are added to the wells in duplicate in a total volume of 25 μL. Viral stock is then added to the wells at a multiplicity of infection (MOI) of 0.5 in a volume of 25 μL, bringing the total volume of each well to 100 μL. The MOI is calculated using the PFU/mL, or TCID50 if unavailable. Each 96-well plate has a control column of 6 wells with cells and virus but no compound (negative control, max CPE), a column with cells but no compound or virus (positive control, minimum CPE), and a column with no cells or virus or compound (background plate/reagent control). The control wells with cells but no virus are given an additional 25 uL of growth media containing an equal quantity of sucrose as those wells receiving the viral stock in order to keep consistent in media and volume conditions. The outer wells of the plate are filled with 125 μL of moat media (DMEM, 1% Penn/Strep) to act as a thermal and evaporative moat around the test wells. 6 days post infection, the plates are read using qPCR or ATP lite (50 uL added per well), which quantifies the amount of ATP (a measure of cell health) present in each well. Assay plates treated with APTlite are read using the Envision luminometer. […] EC50 ranges are as follows: A<0.4 μM; B 0.4-0.8 μM; C>0.8 μM.

[2] = tested on: Human RSV-A (“Long” strain); assay: RSV-A assay: inhibition of cytopathic effect in Hep-2 cells, ATPlite readout; assay type: cell-based, Human respiratory syncytial virus (HRSV); conditions: human respiratory syncytial virus, HEp-2, 120 h, read-out: Human RSV-A (“Long” strain) EC50
In short: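 Hep-2 cells (8,000/well) were infected with RSV-A Long at MOI 0.1 alongside duplicate 2-fold compound dilutions. After 5 days, cell viability was read by ATPlite luminescence to give EC50. CC50 came from a parallel plate without virus.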

[3] = Cytotoxicity on parallel plate without virus, ATPlite readout; assay type: cell-based; conditions: human, Hep-2 cells (no virus), Hep-2 cells without virus, 5-day incubation
In short: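 Hep-2 cells, 8,000/well, received duplicate 2-fold compound dilutions with growth medium in place of virus. After 5 days, viability measured as ATP by ATPlite luminescence. CC50 reported in ranges: A>50 μM; B 10-50 μM; C<10 μM.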

SMILES | EC50 [1] [nM] | EC50 [2] [nM] | CC50 at 5 days [3] [nM]
O=C1Nc2ccccc2C(c2ccccc2)=N[C@@H]1Nc1nnc(-c2ccc(F)cc2)o1 [Example 7a] | > 800 | 400 to 800 | > 50000
C[C@H]1CN(c2cc(C(F)(F)F)cnc2-c2nnc(N[C@H]3N=C(c4ccccc4)c4ccccc4NC3=O)o2)CCO1 [Example 278] | < 400 | < 400 | 
COCCOc1cc(C#N)ccc1-c1nnc(N[C@H]2N=C(c3ccccc3)c3ccccc3NC2=O)o1 [Example 300] | < 400 | < 400 | 
N#CCCNc1cc(C(F)(F)F)cnc1-c1nnc(N[C@H]2N=C(c3ccccc3)c3ccccc3NC2=O)o1 [Example 303] | < 400 | < 400 | 
N#Cc1cnc(-c2nnc(N[C@H]3N=C(c4ccccc4)c4ccccc4NC3=O)o2)c(N2CC3CCC(C2)O3)c1 [Example 304] | < 400 | < 400 | 
O=C1Nc2ccccc2C(c2ccccc2)=N[C@@H]1Nc1nnc(-c2nc3ccccc3cc2N2CCOCC2)o1 [Example 322] | < 400 | < 400 | 
O=C1Nc2ccccc2C(c2ccccc2)=N[C@@H]1Nc1nnc(-c2ncsc2N2CCOCC2)o1 [Example 336] | < 400 | < 400 | 
O=C1Nc2ccccc2C(c2ccccc2)=N[C@@H]1Nc1nnc(-c2nc(C3CC3)sc2N2CCOCC2)o1 [Example 338] | < 400 | < 400 | 
O=C1Nc2ccccc2C(c2ccccc2)=N[C@@H]1Nc1nnc(-c2nc(C(F)(F)F)sc2N2CCOCC2)o1 [Example 339] | < 400 | < 400 | 
O=C1Nc2ccccc2C(c2ccccc2)=N[C@@H]1Nc1nnc(-c2nc(-c3ccccc3)sc2N2CCOCC2)o1 [Example 340] | < 400 | < 400 | 
O=C1Nc2ccccc2C(c2ccccc2)=N[C@@H]1Nc1nnc(-c2nc(-c3ccccn3)sc2N2CCOCC2)o1 [Example 341] | < 400 | < 400 | 
O=C1Nc2ccccc2C(c2ccccc2)=N[C@@H]1Nc1nnc(-c2csc(N3CCOCC3)n2)o1 [Example 351] | 400 to 800 | 400 to 800 | 
O=C1Nc2c(F)cccc2C(c2ccccc2)=N[C@@H]1Nc1nnc(-c2ccccc2N2CCOCC2)o1 [Example 355a] | < 400 | < 400 | 
O=C1Nc2ccccc2C(c2ccccc2)=NC1Nc1nnc(-c2ccc(-n3cccn3)cc2)[nH]1 (stereo not shown) [Example 364] | 400 to 800 | < 400 | 
N#Cc1ccc(-c2ccc(NC3N=C(c4ccccc4)c4ccccc4NC3=O)nn2)cc1 (stereo not shown) [Example 377] | < 400 | < 400 | 
CCc1nc(-c2nnc(N[C@H]3N=C(c4ccccc4)c4ccccc4NC3=O)o2)c(N2CCOCC2)s1 [Example 385] | < 400 | < 400 | 
O=C1Nc2ccccc2C(c2ccccc2)=N[C@@H]1Nc1nnc(-c2nc(C3CCC3)sc2N2CCOCC2)o1 [Example 387] | < 400 | < 400 | 
O=C1Nc2ccccc2C(c2ccccc2)=N[C@@H]1Nc1nnc(-c2nc(-c3cccnc3)sc2N2CCOCC2)o1 [Example 388] | < 400 | < 400 | 
CC(C)n1cc(-c2nnc(N[C@H]3N=C(c4ccccc4)c4ccccc4NC3=O)o2)c(N2CCOCC2)n1 [Example 403] | < 400 | < 400 | 
CC(F)(F)c1nc(-c2nnc(N[C@H]3N=C(c4ccccc4)c4ccccc4NC3=O)o2)c(N2CCOCC2)s1 [Example 407] | < 400 | < 400 | 
O=C1Nc2ccccc2C(c2ccccc2)=N[C@@H]1Nc1nnc(-c2nc(-c3ccncc3)sc2N2CCOCC2)o1 [Example 429] | < 400 | < 400 | 
